{"source": "paper PMC9866218", "about": "“Characterization and Chemical Synthesis of Cm39 (α-KTx 4.8): A Scorpion Toxin That Inhibits Voltage-Gated K^+ Channel KV1.2 and Small- and Intermediate-Conductance Ca^2+-Activated K^+ Channels KCa2.2 and KCa3.1” (Toxins, 2023)", "key": {"hNaV1.5": {"test_system": "hNaV1.5", "assay": "Whole-cell patch-clamp, block of NaV1.5 current", "type": "cell-based, human", "details": "CHO cells", "excerpt": "(§1) We, therefore, aimed at testing the pharmacological activity of sCm39 on a battery of various potassium and sodium ion channels. Among the tested channels were six members of human voltage-gated K^+ (hKV) channels from Shaker family, hKV1.1-hKV1.6 (Figure 3A–F) and three members of Ca^2+-activated potassium channel; hKCa2.2 (SK2, Figure 3I), the small-conductance Ca^2+-activated channel; hKCa3.1 (IKCa1, SK4. Figure 3J), the intermediate-conductance Ca^2+-activated channel expressed in T lymphocytes; and mKCa1.1 (BK, Slo1, MaxiK, Figure 3H), the large-conductance voltage- and Ca^2+-activated channel of mice. In addition, we also screened the effect of Cm39 on hKV11.1 (hERG1, Figure 3G), a voltage-gated cardiac K^+ channel, and two human voltage-gated sodium (hNaV) channels, hNaV1.4 (Figure 3K) and hNaV1.5 (Figure 3L), expressed in skeletal and cardiac muscles, respectively. These ion channels were heterologously expressed in the CHO or HEK cell lines except for KV1.3. Human peripheral T lymphocytes. They were stimulated with Phytohemagglutinin A (PHA) to increase the KV1.3 channel expression, and Ca^2+-free intracellular solution was used to avoid KCa3.1 channel activation. […]\n(§2) Those plasmids which lack a fluorescent tag were co-transfected with a plasmid encoding GFP. […] Generally, currents were recorded 24 to 48 h post transfection. […]"}, "hKV1.4": {"test_system": "hKV1.4", "assay": "Whole-cell patch-clamp, block of KV1.4 current", "type": "cell-based, human", "details": "CHO cells", "excerpt": "as §1, §2"}, "hKV1.1": {"test_system": "hKV1.1", "type": "cell-based, human", "details": "CHO cells", "excerpt": "(§3) We, therefore, aimed at testing the pharmacological activity of sCm39 on a battery of various potassium and sodium ion channels. Among the tested channels were six members of human voltage-gated K^+ (hKV) channels from Shaker family, hKV1.1-hKV1.6 (Figure 3A–F) and three members of Ca^2+-activated potassium channel; hKCa2.2 (SK2, Figure 3I), the small-conductance Ca^2+-activated channel; hKCa3.1 (IKCa1, SK4. Figure 3J), the intermediate-conductance Ca^2+-activated channel expressed in T lymphocytes; and mKCa1.1 (BK, Slo1, MaxiK, Figure 3H), the large-conductance voltage- and Ca^2+-activated channel of mice. In addition, we also screened the effect of Cm39 on hKV11.1 (hERG1, Figure 3G), a voltage-gated cardiac K^+ channel, and two human voltage-gated sodium (hNaV) channels, hNaV1.4 (Figure 3K) and hNaV1.5 (Figure 3L), expressed in skeletal and cardiac muscles, respectively. These ion channels were heterologously expressed in the CHO or HEK cell lines except for KV1.3. Human peripheral T lymphocytes. They were stimulated with Phytohemagglutinin A (PHA) to increase the KV1.3 channel expression, and Ca^2+-free intracellular solution was used to avoid KCa3.1 channel activation. Appropriate depolarization protocols were used to record ionic currents in voltage-clamped cells (see Figure 3 insets and Material and Methods for details). Freshly dissolved sCm39 in extracellular solution was applied at 1 µM concentration on the cell using a custom-built micro-perfusion system at ~200 µL/min flow rate.\n(§4) Chinese hamster ovary (CHO) cells (gift from Yosef Yarden, Weizmann Institute of Science, Rehovot, Israel) were maintained by culturing in Dulbecco’s modified Eagle medium (DMEM, Gibco) supplemented with 2 mM L-glutamine, 10% FBS, 100 µg/mL streptomycin and 100 U/mL penicillin-g (Sigma-Aldrich) at a density of 0. 5−1×10^6 cells per mL in a humidified incubator at 37 °C and 5% CO2. Cells were passaged 3 times in a week following a 2–5 min incubation in 0.05% trypsin-EDTA solution at 37 °C. Cultures were used up to passage number 20. PCR-based tests were routinely used to detect mycoplasma infection, only mycoplasma-free cultures were used for experiments.\n(§5) Those plasmids which lack a fluorescent tag were co-transfected with a plasmid encoding GFP. Transfections were performed at a GFP:channel DNA molar ratio of 1:10 using the Lipofectamine 2000 kit (Invitrogen) according to the manufacturer’s protocol. […] Generally, currents were recorded 24 to 48 h post transfection.\n(§6) For the measurement of KV1.x, mKCa1.1 and NaV1.x currents the extracellular solution was composed of (in mM) 145 NaCl, 5 KCl, 2.5 CaCl2, 1 MgCl2, 10 HEPES and 5.5 glucose, pH 7.35. In the HK-150 and Na^+-free bath solution bath all Na^+ was substituted by K^+ or Choline-Cl, respectively, other ingredients remained unchanged. In the various TEA^+-containing solutions, Na^+ was substituted by tetraethylammonium-Cl in equimolar concentration (Figure 3). The bath solution for KCa2.2 and KCa3.1 consisted of (in mM) 145 L-Aspartic Na^+ salt, 5 KCl, 2.5 CaCl2, 1 MgCl2, 5.5 glucose and 10 HEPES, pH 7.4 and for KV11.1 (in mM) 140 Choline-Cl, 5 KCl, 2 MgCl2, 2 CaCl2, 10 HEPES, 20 glucose and 0.1 CdCl2, pH 7.35. The osmolarity of bath solutions was ranging between 302 to 308 mOsm/L. A total of 0.1 mg/mL bovine serum albumin (BSA, Sigma-Aldrich, Budapest, Hungary) was added to all the bath solutions before the patch-clamp assay to avoid toxin adsorption to the plastic surfaces of the perfusion system. Internal or pipette solution for recording KV1.x and mKCa1.1 currents consisted of (in mM) 140 KF, 2 MgCl2, 1 CaCl2, 11 EGTA and 10 HEPES, pH 7.22."}, "hKV1.6": {"test_system": "hKV1.6", "type": "cell-based, human", "details": "CHO cells", "excerpt": "as §3, §4, §5, §6"}, "hKCa3.1": {"biological_target": "T1, hKCa3.1 (Homo sapiens, UniProt O15554)", "T1 construct": "EGFP (vector pEGFP-C1); expressed in transfected cells; host or cells: CHO cells, transient transfection", "T1 sequence (O15554 whole entry)": "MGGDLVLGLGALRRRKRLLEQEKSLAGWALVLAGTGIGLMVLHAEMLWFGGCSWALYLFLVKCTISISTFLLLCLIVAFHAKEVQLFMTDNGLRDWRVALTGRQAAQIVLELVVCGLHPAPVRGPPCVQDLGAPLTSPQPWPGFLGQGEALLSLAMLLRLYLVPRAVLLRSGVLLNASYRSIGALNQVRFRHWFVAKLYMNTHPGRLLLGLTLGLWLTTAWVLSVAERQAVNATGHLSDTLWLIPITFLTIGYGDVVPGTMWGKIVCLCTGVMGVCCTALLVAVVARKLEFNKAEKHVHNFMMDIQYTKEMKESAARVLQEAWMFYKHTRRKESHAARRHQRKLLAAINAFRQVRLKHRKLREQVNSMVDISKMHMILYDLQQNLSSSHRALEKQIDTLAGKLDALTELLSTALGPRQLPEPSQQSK", "assay": "Whole-cell patch-clamp, block of KCa3.1 current", "type": "cell-based", "excerpt": "as §3\n(§7) The whole-cell K^+ currents of CHO cells transiently expressing KCa2.2 or KCa3.1 channels were recorded sequentially by applying the 150 ms long voltage ramp to +50 mV from Vh of −120 mV every 10 s in the presence of control solution or upon perfusing the cell with different concentrations of sCm39. Normalized peak currents were calculated and plotted as function of time as shown in Figure 5A for KCa2.2 and in Figure 5C for KCa3.1 in the presence of the toxin at various concentrations and upon wash-out. […] RCF values were determined at equilibrium block in the presence of various concentrations of sCm39 and fitted with the Hill equation (see Materials and Methods for details).\nas §4, §5\n(§8) For the measurement of KV1.x, mKCa1.1 and NaV1.x currents the extracellular solution was composed of (in mM) 145 NaCl, 5 KCl, 2.5 CaCl2, 1 MgCl2, 10 HEPES and 5.5 glucose, pH 7.35."}, "hKCa2.2": {"biological_target": "T2, hKCa2.2 (Homo sapiens, UniProt Q9H2S1)", "T2 construct": "expressed in transfected cells; host or cells: CHO cells, transient transfection, co-transfected with a GFP plasmid", "T2 sequence (Q9H2S1 whole entry)": "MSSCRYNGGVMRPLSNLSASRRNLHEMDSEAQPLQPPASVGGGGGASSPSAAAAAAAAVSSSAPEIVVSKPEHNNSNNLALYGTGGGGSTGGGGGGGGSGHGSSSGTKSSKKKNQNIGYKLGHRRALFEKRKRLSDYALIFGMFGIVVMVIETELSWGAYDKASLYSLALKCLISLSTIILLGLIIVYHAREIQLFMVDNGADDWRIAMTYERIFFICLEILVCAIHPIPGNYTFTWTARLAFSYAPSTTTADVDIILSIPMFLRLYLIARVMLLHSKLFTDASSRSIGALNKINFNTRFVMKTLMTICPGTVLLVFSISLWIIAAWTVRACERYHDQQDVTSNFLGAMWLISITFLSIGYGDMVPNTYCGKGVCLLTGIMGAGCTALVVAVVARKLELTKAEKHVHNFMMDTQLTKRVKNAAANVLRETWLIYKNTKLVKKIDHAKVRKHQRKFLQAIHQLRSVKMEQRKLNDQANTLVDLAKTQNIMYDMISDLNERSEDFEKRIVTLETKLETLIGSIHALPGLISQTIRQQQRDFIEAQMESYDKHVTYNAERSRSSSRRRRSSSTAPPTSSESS", "assay": "Whole-cell patch-clamp, block of KCa2.2 current", "type": "cell-based", "excerpt": "as §3, §7, §4, §5, §8"}, "[1]": {"details": "1 µM, CHO cells, current at +48 mV, n = 3−5 (Figure 3M)"}, "[2]": {"details": "wash-out with toxin-free solution"}}, "note": "Entries after “also recorded” stand apart in the source; their conditions may differ.", "data": [{"smiles": "CC[C@H](C)[C@@H]1NC(=O)[C@H](C)NC(=O)[C@H](C)NC(=O)[C@H](CCCCN)NC(=O)[C@@H]2CSSC[C@@H](C(=O)N[C@@H](Cc3ccc(O)cc3)C(=O)N[C@@H](Cc3ccc(O)cc3)C(=O)O)NC(=O)[C@H](CCCCN)NC(=O)[C@@H]3CSSC[C@H](NC(=O)[C@H](CCC(=O)O)NC(=O)[C@H](CO)NC(=O)[C@H](CO)NC(=O)[C@H](CO)NC(=O)[C@H](CCCCN)NC(=O)[C@@H](NC(=O)[C@H](CCCCN)NC(=O)[C@H](Cc4c[nH]cn4)NC(=O)[C@H](CC(N)=O)NC(=O)[C@@H](NC(=O)[C@H](Cc4ccccc4)NC(=O)[C@@H](N)[C@@H](C)O)[C@@H](C)CC)CSSC[C@H](NC(=O)[C@H](CCCCN)NC(=O)CNC(=O)[C@H](CO)NC(=O)[C@H](C)NC(=O)[C@H](CCCNC(=N)N)NC(=O)CNC1=O)C(=O)N[C@@H]([C@@H](C)CC)C(=O)N[C@@H](CC(N)=O)C(=O)N[C@@H](CO)C(=O)N[C@@H]([C@@H](C)O)C(=O)N3)C(=O)N[C@@H](CC(C)C)C(=O)N1CCC[C@H]1C(=O)N[C@@H](C)C(=O)N2", "note": "[Cm39]", "values": [{"measurement": "inhibition (in words)", "setting": "hNaV1.5; 1 μM", "value": "does not inhibit; also recorded: did not show any effect"}, {"measurement": "decrease in current", "setting": "hNaV1.5; 1 µM, 3−5 min, n = 3−5", "value": "< 3", "unit": "%"}, {"measurement": "inhibition (in words)", "setting": "hKV1.4; 1 μM", "value": "does not inhibit; also recorded: did not show any effect"}, {"measurement": "decrease in current", "setting": "hKV1.4; 1 µM, 3−5 min, n = 3−5", "value": "< 3", "unit": "%"}, {"measurement": "inhibition (in words)", "setting": "hKV1.1; 1 μM", "value": "does not inhibit; also recorded: did not show any effect"}, {"measurement": "decrease in current", "setting": "hKV1.1; 1 µM, 3−5 min, n = 3−5", "value": "< 3", "unit": "%"}, {"measurement": "inhibition (in words)", "setting": "hKV1.6; 1 μM", "value": "does not inhibit; also recorded: did not show any effect"}, {"measurement": "decrease in current", "setting": "hKV1.6; 1 µM, 3−5 min, n = 3−5", "value": "< 3", "unit": "%"}, {"measurement": "reduction of current at equilibrium block", "setting": "hKCa3.1; [1]", "value": 86, "unit": "%"}, {"measurement": "toxin association and dissociation kinetics", "setting": "hKCa3.1; CHO cells", "value": "fast"}, {"measurement": "toxin association and dissociation kinetics", "setting": "hKCa3.1; CHO cells, listed as sCm39", "value": "very fast"}, {"measurement": "Hill coefficient (H)", "setting": "hKCa3.1; concentration-response of KCa3.1 block, CHO cells", "value": 0.68}, {"measurement": "development and almost full recovery from equilibrium block", "setting": "hKCa3.1; pulses separated by 10 s", "value": "1–3 depolarization pulses"}, {"measurement": "reversibility of KCa3.1 block", "setting": "hKCa3.1; [2]", "value": "fully reversible"}, {"measurement": "reduction of current at equilibrium block", "setting": "hKCa2.2; [1]", "value": 55, "unit": "%"}, {"measurement": "toxin association and dissociation kinetics", "setting": "hKCa2.2; CHO cells", "value": "fast"}, {"measurement": "toxin association and dissociation kinetics", "setting": "hKCa2.2; CHO cells, listed as sCm39", "value": "very fast"}, {"measurement": "Hill coefficient (H)", "setting": "hKCa2.2; concentration-response of KCa2.2 block, CHO cells", "value": 0.7}, {"measurement": "development and almost full recovery from equilibrium block", "setting": "hKCa2.2; pulses separated by 10 s", "value": "1–3 depolarization pulses"}, {"measurement": "reversibility of KCa2.2 block", "setting": "hKCa2.2; [2]", "value": "fully reversible"}]}]}
